In paper PMC12629174, “Exploring Bioactive Metabolites From Fusarium falciforme and Aspergillus terreus Isolated From Protease‐Rich Fruits: Antifungal, Antitrypanosomal, and Enzymatic Inhibitory Activities” (Chemistry & Biodiversity, 2025):
Read-outs that look alike come from different tables or passages of the source.

Assays:
papain [1] = molecular target: T1, papain (Carica papaya, UniProt P00784); assay: fluorimetric papain assay with ZFR-MCA substrate; assay type: biochemical
T1 sequence (P00784 134-345): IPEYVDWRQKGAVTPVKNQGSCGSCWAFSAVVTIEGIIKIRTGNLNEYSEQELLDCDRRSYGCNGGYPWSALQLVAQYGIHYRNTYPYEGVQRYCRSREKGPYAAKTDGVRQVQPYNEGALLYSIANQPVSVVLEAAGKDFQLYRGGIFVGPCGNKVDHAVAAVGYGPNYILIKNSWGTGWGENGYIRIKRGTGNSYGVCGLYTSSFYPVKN

papain [2] = molecular target: T1, papain; assay: fluorimetric papain assay with ZFR-MCA; titration of papain by the irreversible inhibitor (positive control); assay type: biochemical; settings: read-out: % inhibition at 1 μM (25 nM in the well)

Row | IC50 (papain [1]; read-out: IC50) | Structure (SMILES) | further results
1 | 28.6 µM | CC(=C\C(=O)O)/C=C(\C)C[C@H](C)CCCC[C@@H](O)C(CO)C(=O)O (stereo partly shown) [compound 2, fusaridioic acid A] | 
2 |  | CC(C)C[C@H](NC(=O)C1OC1C(=O)O)C(=O)NCCCCNC(=N)N (stereo partly drawn) [E-64, 1‐[L‐N‐(trans‐epoxysuccinyl)leucyl] amino‐4‐guanidinobutane] | inhibition at 1 µM (papain [2]): 90%
3 | 9.38 µM | CC(=C\C(=O)O)/C=C(\C)C[C@H](C)CCCC[C@H]1OC(=O)[C@@H]1CO [compound 1, hymeglusin] | 
4 |  | COC(=O)[C@]1(Cc2ccc(O)c(CC=C(C)C)c2)OC(=O)C(O)=C1c1ccc(O)cc1 [compound 3, butyrolactone I] | IC50 (papain [1]): 6.24 µM
